The test deals with T1, EHMT2 (Homo sapiens, UniProt Q96KQ7).
T1 construct: host or cells: MDA-MB-231
T1 sequence (Q96KQ7 1-1210): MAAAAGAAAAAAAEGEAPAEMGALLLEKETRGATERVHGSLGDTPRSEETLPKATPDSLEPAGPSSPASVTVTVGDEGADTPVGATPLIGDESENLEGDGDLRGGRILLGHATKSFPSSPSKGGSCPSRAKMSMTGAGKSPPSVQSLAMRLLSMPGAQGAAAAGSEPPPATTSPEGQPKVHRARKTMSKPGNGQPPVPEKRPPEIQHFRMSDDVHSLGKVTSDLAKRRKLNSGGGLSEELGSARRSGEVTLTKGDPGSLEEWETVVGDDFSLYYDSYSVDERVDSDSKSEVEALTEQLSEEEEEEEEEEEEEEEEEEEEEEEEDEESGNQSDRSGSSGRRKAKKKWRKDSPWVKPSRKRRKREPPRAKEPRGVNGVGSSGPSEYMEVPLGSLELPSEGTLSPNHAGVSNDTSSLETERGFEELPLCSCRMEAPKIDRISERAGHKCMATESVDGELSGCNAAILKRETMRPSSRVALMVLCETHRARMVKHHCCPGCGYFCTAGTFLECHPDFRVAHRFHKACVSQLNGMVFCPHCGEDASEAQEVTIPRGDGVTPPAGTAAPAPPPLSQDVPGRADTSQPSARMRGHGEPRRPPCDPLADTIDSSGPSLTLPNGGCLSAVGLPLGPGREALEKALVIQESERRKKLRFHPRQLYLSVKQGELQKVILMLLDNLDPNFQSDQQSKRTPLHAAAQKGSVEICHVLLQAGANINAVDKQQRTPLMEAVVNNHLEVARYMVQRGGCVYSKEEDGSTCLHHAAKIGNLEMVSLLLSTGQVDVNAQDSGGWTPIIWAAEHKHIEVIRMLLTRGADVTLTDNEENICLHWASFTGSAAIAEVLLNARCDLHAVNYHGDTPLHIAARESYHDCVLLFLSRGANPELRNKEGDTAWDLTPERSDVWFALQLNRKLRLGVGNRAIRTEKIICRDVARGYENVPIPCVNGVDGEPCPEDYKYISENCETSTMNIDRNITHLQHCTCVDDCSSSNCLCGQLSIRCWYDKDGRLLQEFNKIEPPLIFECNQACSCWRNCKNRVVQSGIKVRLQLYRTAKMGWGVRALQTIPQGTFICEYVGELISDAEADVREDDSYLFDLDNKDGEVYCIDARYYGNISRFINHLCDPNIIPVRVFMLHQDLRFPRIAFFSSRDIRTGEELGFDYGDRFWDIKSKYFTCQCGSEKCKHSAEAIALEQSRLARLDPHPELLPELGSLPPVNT
Nature of the test: MDA-MB-231 H3K9me2 in-cell Western assay (EHMT2 ICW). Type of test: cell-based. The note with it: Table II; MDA-MB-231 H3K9me2 in-cell Western; read-out: EHMT2 ICW (IC50 μM). The essentials: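 MDA-MB-231 cells (3,000/well) were exposed to compound for 30 min at room temperature and then 48 h at 37 °C, fixed with paraformaldehyde, and stained with anti-H3K9me2 (800 nm) plus DRAQ5 (700 nm). Per-well channel ratios gave percent inhibition, and IC50 came from a four-parameter fit of triplicate wells.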

The results in this text go back to US20210198277A1, “AMINE-SUBSTITUTED ARYL OR HETEROARYL COMPOUNDS” (Epizyme, Inc., priority 2016, published 2021).

Structures are written as SMILES.

On to `COc1ccc(Nc2cccc(NC3CCC3)n2)cc1OCCCN1CCCC1` [Compound 35], for which the IC50 lay within 0.1 to 1 µM.

As for `CNc1nccc(Nc2ccc(OC)c(OCCCN3CCCC3)c2)n1` [Compound 231], the IC50 was in the range of 0.1 to 1 µM.

For `CNCc1cnc(Nc2ccc(OC)c(OCCCN3CCCC3)c2)nc1` [Compound 215], the IC50 is over 10 µM. To `CNc1ccnc(Nc2ccc3c(c2)N(C(=O)CCN(C)C)CC3)n1` [Compound 239] belongs over 10 µM; to `CNc1ccnc(Nc2cccc(OC[C@@H](O)CN3CCCC3)c2)n1` [Compound 253], over 10 µM; to `CNc1ccnc(Nc2cccc(OCCCN3CCCC3)c2)n1` [Compound 207, N^4-methyl-N^2-(3-(3-(pyrrolidin-1-yl)propoxy)phenyl)pyrimidine-2,4-diamine], 1 to 10 µM.

For the compound `COc1ccc(Nc2nccc(NCC(C)(C)O)n2)cc1OCCCN1CCCC1` [Compound 42], the IC50 lay within 1 to 10 µM. The value for `COc1ccc(Nc2ccc3nn(C)cc3c2)cc1OCCCN1CCCC1` [Compound 221] was over 10 µM; that for `COc1ccc(Nc2ncc3ncn(C)c3n2)cc1OCCCN1CCCC1` [Compound 219] was over 10 µM. For `COc1ccc(Nc2nccc(NCC3CCN(C(C)C)CC3)n2)cc1OCCCN1CCCC1` [Compound 29], the IC50 is 0.1 to 1 µM. To `CCc1cc(NC)nc(Nc2ccc(OC)c(OCCCN3CCCC3)c2)n1` [Compound 240] belongs 0.1 to 1 µM; to `COc1ccc(Nc2nccc(-n3nc(C)cc3C)n2)cc1OCCCN1CCCC1` [Compound 214], over 10 µM; to `COc1ccc(Nc2nccc(NCC3(O)CCOCC3)n2)cc1OCCCN1CCCC1` [Compound 49], 1 to 10 µM. To `COc1ccc(Nc2ccc3ncc(C)n3n2)cc1OCCCN1CCCC1` [Compound 223] belongs over 10 µM; to `COc1ccc(CNc2ccnc(Nc3ccc(OC)c(OCCCN4CCCC4)c3)n2)cc1` [Compound 28], 0.1 to 1 µM; to `COc1ccc(Nc2nccc(NCc3ccncc3)n2)cc1OCCCN1CCCC1` [Compound 24], 0.1 to 1 µM. For the compound `COc1ccc(Nc2nccc(NCc3ccccc3)n2)cc1OCCCN1CCCC1` [Compound 21], the IC50 was in the range of 0.1 to 1 µM. The value for `COc1ccc(Nc2nccc(NCC3CCN(c4ccccc4)CC3)n2)cc1OCCCN1CCCC1` [Compound 33] was 0.1 to 1 µM; that for `COc1ccc(Nc2nccc(NCC3CCCC3)n2)cc1OCCCN1CCCC1` [Compound 34] was 0.1 to 1 µM; that for `COc1ccc(Nc2nccc(NCc3cnn(C)c3)n2)cc1OCCCN1CCCC1` [Compound 30] was 0.1 to 1 µM.

With `COc1ccc(Nc2nccc(NCC3CCOCC3)n2)cc1NCCCN1CCCC1` [Compound 226], the IC50 lay within 1 to 10 µM. Regarding `COc1ccc(Nc2nccc(NCC3CCN(C(C)=O)CC3)n2)cc1OCCCN1CCCC1` [Compound 47, 1-(4-(((2-((4-methoxy-3-(3-(pyrrolidin-1-yl)propoxy)phenyl)amino)pyrimidin-4-yl)amino)methyl)piperidin-1-yl)ethan-1-one], the IC50 was 1 to 10 µM. The value for `CNc1ccnc(Nc2cccc(OC[C@H](O)CN3CCCC3)c2)n1` [Compound 252] was 1 to 10 µM. Turning to `COc1ccccc1CNc1ccnc(Nc2ccc(OC)c(OCCCN3CCCC3)c2)n1` [Compound 36], the IC50 was in the range of 0.1 to 1 µM. To `COc1ccc(Nc2nccc(NCC3CCNCC3)n2)cc1CCNCC1CCCC1` [Compound 17, N^2-(3-(2-((cyclopentylmethyl)amino)ethyl)-4-methoxyphenyl)-N^4-(piperidin-4-ylmethyl)pyrimidine-2,4-diamine] belongs over 10 µM. The value for `COc1ccc(NCCCN2CCCC2)cc1Nc1nccc(NCC2CCOCC2)n1` [Compound 228] was over 10 µM; that for `COc1ccc(Nc2cnnc(NCC3CCN(C(C)=O)CC3)c2)cc1OCCCN1CCCC1` [Compound 242] was over 10 µM; that for `CNc1ccnc(Nc2ccc(OC)c(OCCCN3CCOCC3)c2)n1` [Compound 210] was 1 to 10 µM. `COc1ccc(Nc2nccc(NCc3cc[nH]n3)n2)cc1OCCCN1CCCC1` [Compound 46]: the IC50 was 1 to 10 µM. The value for `COCCNc1ccnc(Nc2ccc(OC)c(OCCCN3CCCC3)c2)n1` [Compound 27] was 0.1 to 1 µM; that for `COc1ccc(Nc2nccc(NCC3CCN(C(C)=O)CC3)n2)cc1COCCN1CCCC1` [Compound 48] was 1 to 10 µM; that for `COc1ccc(Nc2nccc(NCC3CCOCC3)n2)cc1OC1CC2(C1)CN(C)C2` [Compound 243] was over 10 µM. The value for `COc1ccc(Nc2nccc(NCCOc3ccccc3)n2)cc1OCCCN1CCCC1` [Compound 40] was 1 to 10 µM; that for `COc1ccc(Nc2nccc3[nH]ncc23)cc1OCCCN1CCCC1` [Compound 249] was over 10 µM.

`COc1ccc(Nc2ccc3ncn(C)c3n2)cc1OCCCN1CCCC1` [Compound 218]: the IC50 was over 10 µM. For the compound `CC(C)Nc1ccnc(Nc2cccc(OCCCN3CC[C@@H](F)C3)c2)n1` [Compound 251], the IC50 is over 10 µM. As for `COc1ccc(Nc2nccc(NCc3ccccn3)n2)cc1OCCCN1CCCC1` [Compound 23], the IC50 lay in the range of 0.1 to 1 µM. As to `COc1cccc(CNc2ccnc(Nc3ccc(OC)c(OCCCN4CCCC4)c3)n2)c1` [Compound 26], the IC50 fell in the range of 0.1 to 1 µM. To `COc1ccc(Nc2cccc3cn(C)nc23)cc1OCCCN1CCCC1` [Compound 222] belongs over 10 µM.

Consider `COc1ccc(Nc2ccnc3[nH]ccc23)cc1OCCCN1CCCC1` [Compound 250], for which the IC50 is over 10 µM. Consider `CNc1cc(Nc2ccc(OC)c(OCCCN3CCCC3)c2)ccn1` [Compound 206], for which the IC50 was over 10 µM. To `COc1ccc(Nc2nccc(NCCc3cccnc3)n2)cc1OCCCN1CCCC1` [Compound 37] belongs 0.1 to 1 µM; to `COCCCNc1ccnc(Nc2ccc(OC)c(OCCCN3CCCC3)c2)n1` [Compound 22], 0.1 to 1 µM. The value for `COc1ccc(Nc2nccc(NCc3nc4ccccc4[nH]3)n2)cc1OCCCN1CCCC1` [Compound 31] was 0.1 to 1 µM. On to `COc1ccc(Nc2cccc3ncnn23)cc1OCCCN1CCCC1` [Compound 220], for which the IC50 is over 10 µM. Turning to `COc1ccc(Nc2nccc(NCc3cccnc3)n2)cc1OCCCN1CCCC1` [Compound 25], the IC50 lay in the range of 0.1 to 1 µM.

Consider `CNc1ccnc(Nc2ccc(OC)c(OCCN3CCOCC3)c2)n1` [Compound 237], for which the IC50 is over 10 µM. To `COc1ccc(OCCCN2CCCC2)cc1Nc1nccc(NCC2CCOCC2)n1` [Compound 227] belongs over 10 µM. On to `COc1ccc(Nc2ccc3cnn(C)c3c2)cc1OCCCN1CCCC1` [Compound 217], for which the IC50 was over 10 µM.

In the case of `CNc1cc(C)nc(Nc2ccc(F)c(OCCCN3CCCC3)c2)n1` [Compound 232], the IC50 is over 10 µM.

Take `CNc1nc(C)cc(Nc2ccc(OC)c(OCCCN3CCCC3)c2)n1` [Compound 208]: the IC50 is 1 to 10 µM. The value for `COc1ccc(Nc2nccc(NCC3CCNCC3)n2)cc1OCCCN1CCOCC1` [Compound 16, N^2-(4-methoxy-3-(3-morpholinopropoxy)phenyl)-N^4-(piperidin-4-ylmethyl)pyrimidine-2,4-diamine] was over 10 µM; that for `CNC(=O)CNc1ccnc(Nc2ccc(OC)c(OCCCN3CCCC3)c2)n1` [Compound 41] was 1 to 10 µM; that for `CNc1nc(Nc2ccc(OC)c(OCCCN3CCCC3)c2)ncc1C(F)(F)F` [Compound 234] was over 10 µM.

The term IC50 denotes the concentration that inhibits the measured activity by half.
